The text below walks through data of ChEMBL document CHEMBL3632474, “Synthesis, biological evaluation and structure-activity relationship studies of isoflavene based Mannich bases with potent anti-cancer activity” (Bioorg Med Chem Lett, 2015).

As usually defined, the IC50 is the concentration that inhibits the measured activity by half. Low readings indicate greater potency, high ones weaker potency.

A short description of assay [1]: Antiproliferative effects against human SHEP cells after 72 hrs by Alamar blue assay. (In general: Resazurin is reduced to fluorescent resorufin, in cell work by metabolically active cells.)
The test system of another assay is MRC5. Description: Antiproliferative effects against human MRC5 cells after 72 hrs by Alamar blue assay. Conditions: MRC5, 72 h.

In the case of `OCCNCc1cc2c(cc1O)OC=C(c1ccc(O)cc1)C2`, in assay [1], the IC50 amounted to 27.5 µM. That is a double-digit micromolar value. Turning to `Oc1ccc(C2=Cc3cc(CN4CCOCC4)c(O)cc3OC2)cc1`, it took 86.8 µM to reach half-maximal inhibition in assay [1] (IC50).

As for `CCCCNCc1cc2c(cc1O)OC=C(c1ccc(O)cc1)C2`, the figures for the half-inhibitory concentration (IC50) (in the assay with MRC5; in assay [1]) were 33.8 µM and 4 µM, respectively. In the same order, the values of `CCCCCCCNCc1cc2c(cc1O)OC=C(c1ccc(O)cc1)C2` are 16 µM and 2.8 µM. For the molecule `Oc1ccc(C2=COc3cc(O)c(CNCCc4ccccc4)cc3C2)cc1`, the half-inhibitory concentration (IC50) was 36.7 µM in the assay on MRC5 and 1.8 µM in assay [1]. With `Oc1ccc(C2=Cc3cc(CN4CCOCC4)c(O)c(CN4CCOCC4)c3OC2)cc1CN1CCOCC1`, the IC50 in assay [1] is 69 µM. On to `OCCN1COc2cc3c(cc2C1)C=C(c1ccc(O)cc1)CO3`, for which the concentration for half-maximal inhibition (IC50) in assay [1] was 24.6 µM. Turning to `CC(C)NCc1cc2c(cc1O)OC=C(c1ccc(O)cc1)C2`, the half-inhibitory concentration (IC50) in assay [1] came out at 15.1 µM. This IC50 lies about 1.6-fold lower than the previous one. In the case of `Oc1ccc(C2=Cc3cc(CN4CCOCC4)c(O)cc3OC2)cc1CN1CCOCC1`, in assay [1], it took 171 µM to reach half-maximal inhibition (IC50). Molecule `CCN(CC)Cc1cc2c(cc1O)OCC(c1ccc(O)cc1)=C2` displayed a 50% inhibitory concentration (IC50) in assay [1] of 35.7 µM. As for `C1=C(c2ccc3c(c2)CN(Cc2ccccc2)CO3)COc2cc3c(cc21)CN(Cc1ccccc1)CO3`, in assay [1], the IC50 turned out to be 3.7 µM.

Molecule `Oc1ccc(C2=Cc3cc4c(cc3OC2)OCN(Cc2ccccc2)C4)cc1` yielded an IC50 in assay [1] of 5.7 µM. Against the preceding molecule, the IC50 is about 1.5-fold higher. Take `CC(C)N1COc2cc3c(cc2C1)C=C(c1ccc(O)cc1)CO3`: the IC50 in assay [1] was 12.2 µM. Take `Oc1ccc(C2=Cc3cc(CN4CCCCC4)c(O)cc3OC2)cc1`: the half-maximal inhibitory concentration (IC50) in assay [1] is 19.9 µM. As for `Oc1ccc(C2=Cc3cc(CN4CCCCC4)c(O)cc3OC2)cc1CN1CCCCC1`, it took 4.2 µM to reach half-maximal inhibition in assay [1] (IC50). Against the preceding molecule, the IC50 is about 4.7-fold lower. In assay [1], `C=CCN1COc2cc3c(cc2C1)C=C(c1ccc(O)cc1)CO3` yielded an IC50 of 9.1 µM. Same read-out and setting: as for `CCCCOCCCNCc1cc2c(cc1O)OC=C(c1ccc(O)cc1)C2`, the figure is 5.1 µM. Consider `Oc1ccc(C2=COc3cc(O)ccc3C2)cc1` [ISOPHENOXODIOL], for which the concentration for half-maximal inhibition (IC50) in the assay on MRC5 turned out to be 109 µM; in assay [1] it was 8.4 µM. As to `CN1COc2cc3c(cc2C1)C=C(c1ccc(O)cc1)CO3`, inhibition in assay [1] was half-maximal at 6.6 µM (IC50). This counts as single-digit micromolar. For the molecule `CN(C)Cc1cc2c(cc1O)OC=C(c1ccc(O)cc1)C2`, in assay [1], the 50% inhibitory concentration (IC50) was found to be 5.8 µM. For `CCN(CC)Cc1cc(C2=Cc3cc(CN(CC)CC)c(O)cc3OC2)ccc1O`, the IC50 in the assay with MRC5 is 21.2 µM; in assay [1] it was 3.4 µM. Turning to `Oc1ccc(C2=Cc3cc4c(cc3OC2)OCN(CCc2ccccc2)C4)cc1`, the 50% inhibitory concentration (IC50) with MRC5 stood at 197 µM; in assay [1] it was 0.7 µM. As to `CCCCCCCN1COc2cc3c(cc2C1)C=C(c1ccc(O)cc1)CO3`, the IC50 with MRC5 is 11.9 µM; in assay [1], 1.4 µM. On to `Oc1ccc(C2=COc3cc(O)c(CNCc4ccccc4)cc3C2)cc1`, for which the results for the IC50 (with MRC5; in assay [1]) were 40.9 µM and 5.7 µM, respectively. For the molecule `CCCCN1COc2cc3c(cc2C1)C=C(c1ccc(O)cc1)CO3`, the concentration for half-maximal inhibition (IC50) in the assay with MRC5 was 33.8 µM; in assay [1], 3.9 µM.
